Experimental data from patent US20110294721A1, “ANTIMICROBIAL PEPTIDES” (priority 2008, published 2011).
Where two headings read alike, the source gives them in different places. No end group written: not given here.

Experiments:
[1] = test system: Alternaria alternata; experiment: MIC in-vitro inhibition assay, antifungal (Example 2); format: cell-based; settings: complete inhibition of spore germination/mycelial growth; Table 1
Method: (§1) In-vitro inhibition assays were performed in sterile flat-bottom 96-well plates (Greiner bio-one, Frickenhausen). Antimicrobial peptides were dissolved in 0.01% acetic acid containing 0.2% BSA (500 μg/ml), filter sterilized and stored at −20° C. For inhibition assays dilutions of peptides ranging from 5 to 200 μg/ml were prepared and 10 μl (antibacterial assay) or 20 μl (antifungal assay) of each concentration was loaded per well.
(§2) Spores of fungi were collected by water washes of sporulating cultures grown on 2% malt extract agar and spore concentration was determined by microscopy. The concentration of the spores was adjusted to 1.5-2×10^3 spores/ml in 2% malt extract medium and 80 μl of fungal spores were added per well. The final peptide concentrations used in the fungal inhibition assays were 0, 2, 4, 10, 20, 40, and 100 μg/ml. After overnight incubation at room temperature the plate were put on a rotary shaker (300 rpm) for further two days to ensure consistantly growth. Antifungal effects of the peptides were determined by a microplate reader (Altemaria, Fusarium) at OD590 nm or by visual screening of the plates (Bottytis, Cladosporium).
(§3) The lowest peptide concentration leading to complete inhibition of bacterial growth or spore germination/mycelial growth (minimal inhibition concentration, MIC) was determined for each organism-peptide combination. For each peptide concentration two identical inhibition assays were performed.

[2] = test system: Botrytis cinerea; experiment: as above; format: cell-based; settings: complete inhibition of spore germination/mycelial growth; Table 1
Method: as §1, §2, §3

[3] = test system: Cladosporium herbarum; experiment: as above; format: cell-based; settings: complete inhibition of spore germination/mycelial growth; Table 1
Method: as §1, §2, §3

[4] = test system: Enterobacter cloacae; format: cell-based
Method: (§4) In-vitro inhibition assays were performed in sterile ELISA-plates (Greiner bio-one, Frickenhausen or Nunc, Wiesbaden). Antimicrobial peptides were dissolved in 0.01% acetic acid containing 0.2% BSA and stored at −20° C. […] After incubation for one day at 27° C. growth inhibition of the bacteria was analyzed by a ELISA microplate reader.

[5] = test system: Klebsiella pneumoniae; format: cell-based
Method: as §4

[6] = test system: Klebsiiella oxytoca; format: cell-based
Method: as §4

[7] = test system: Pseudomonas aeruginosa; format: cell-based
Method: as §4

[8] = test system: Staphylococcus epidermidis; format: cell-based
Method: as §4

[9] = test system: Yersinia enterocolitica; format: cell-based
Method: as §4

[10] = test system: Escherichia coli (DH5α); format: cell-based
Method: (§5) In-vitro inhibition assays were performed in sterile ELISA-plates (Greiner bio-one, Frickenhausen or Nunc, Wiesbaden). Antimicrobial peptides were dissolved in 0.01% acetic acid containing 0.2% BSA and stored at −20° C. For inhibition assays dilutions of peptides ranging from 5 to 500 μg/ml were prepared and 10 μl of each concentration was loaded per well.
(§6) The optical density of bacteria overnight cultures were adjusted to 0.08-0.1 and diluted in BHI-medium (1:1000). 90 μl of this suspension containing about 10^5-10^6 CFU/ml of tested bacteria were added to each well resulting in final peptide concentrations of 0, 0.5, 1, 2, 5, 10, 20, and 50 μg/ml. After incubation for one day at 27° C. growth inhibition of the bacteria was analyzed by a ELISA microplate reader. The lowest concentration, in which there is no observable growth (>90% inhibition) is referred to as minimal inhibitory concentration (MIC).
(§7) In-vitro inhibition assays were performed as described in Example 5 above.

[11] = test system: Staphylococcus aureus; format: cell-based
Method: as §5, §6, §7

[12] = test system: Pectobacterium carotovorum sub. carotovorum
[13] = test system: Xanthomonas vesicatoria
[14] = test system: Pseudomonas syringae pv. tomato
[15] = test system: Pseudomonas syringae pv. syringae
[16] = test system: Pseudomonas corrugata
[17] = test system: Clavibacter michiganensis sub. michiganensis; settings: complete inhibition of bacterial growth; overnight 25° C.; Table 1
[18] = test system: Pseudomonas corrugata; settings: Table 2; for LC (lethal concentration): 100% inhibition after at least 4 days of incubation; for MIC: >90% inhibition, 1-2 days at 25° C.
Method: as §1
(§8) Bacteria colonies from overnight agar plate cultures were resuspended into 5 ml LB-medium or HPG-medium (OD600 nm=0.08-0.1) and diluted into LB-medium/HPG-medium (1:100). 90 μl of this suspension containing about 10^5-10^6 CFU/ml of tested bacteria were added to each well resulting in final peptide concentrations of 0, 0.5, 1, 2, 5, 10, and 20 μg/ml. […] The lowest concentration, in which there is no observable growth (>90% inhibition) is referred to as minimal inhibitory concentration (MIC). […] For each peptide concentration two identical inhibition assays were performed.

[19] = test system: Clavibacter michiganensis; experiment: MIC and lethal concentration (LC) assay (Example 3); format: cell-based; settings: Table 2; for LC (lethal concentration): 100% inhibition after at least 4 days of incubation; for MIC: >90% inhibition, 1-2 days at 25° C.
Method: as §1, §8

[20] = test system: Pectobacterium carotovorum; experiment: as above; format: cell-based; settings: Table 2; for LC (lethal concentration): 100% inhibition after at least 4 days of incubation; for MIC: >90% inhibition, 1-2 days at 25° C.
Method: as §1, §8

[21] = test system: Pseudomonas syringae pv. syringae; experiment: as above; format: cell-based; settings: Table 2; for LC (lethal concentration): 100% inhibition after at least 4 days of incubation; for MIC: >90% inhibition, 1-2 days at 25° C.
Method: as §1, §8

[22] = test system: Pseudomonas syringae pv. tomato; experiment: as above; format: cell-based; settings: Table 2; for LC (lethal concentration): 100% inhibition after at least 4 days of incubation; for MIC: >90% inhibition, 1-2 days at 25° C.
Method: as §1, §8

[23] = test system: Xanthomonas vesicatoria; experiment: as above; format: cell-based; settings: Table 2; for LC (lethal concentration): 100% inhibition after at least 4 days of incubation; for MIC: >90% inhibition, 1-2 days at 25° C.
Method: as §1, §8

[24] = test system: human immundeficiency virus (HIV); format: cell-based; settings: HeLa cells pre-treated 30 min at 37° C.; red fluorescence after 72 h; read-out: IC50, concentration where the infection is decreased by 50% (compared to non-treated controls)
Method: Cells were pretreated with 6.3 μg/ml SP13-3 and SP13-14 or buffer for 30 min at 37° C. before addition of virus particles. […] Shown is an overlay of pictures taken under transmitted light and fluorescence after 72 hours incubation. The viability of the HeLa cells was determined by measuring the activity of the mitochondrial dehydrogenase.
To measure the activity of the designed oligopeptides against human immundeficiency virus (HIV) a fluorescence-based reporter system was used. HeLa cells (LC5-RIC) harbour a reporter gene, which regulates in dependency of HIV Rev and Tat proteins the synthesis of a red fluorescing protein. In this way the infection of the HeLa cells (LC5-RIC) is indicated and the infection rate can be quantified using a fluorescence microplate reader.
(§9) Antimicrobial oligopeptides were dissolved in 0.01% acetic acid containing 0.2% BSA (500 μg/ml), filter sterilized and stored at −20° C. […] (in 5% CO2). Afterwards, virus particles were added to the pre-treated HeLa cells and the infection was quantified by measuring red fluorescence with a fluorescence microplate reader after 72 h incubation. The viability of the HeLa cells was determined by measuring the activity of the mitochondrial dehydrogenase according to Lindl and Bauer (1994) and Mosmann (1983).

[25] = test system: HeLa cells (LC5-RIC); format: cell-based, human
Method: as §9

[26] = test system: Xylella fastidiosa; settings: reported by Kuzina et al (2006); cited from earlier work
[27] = complete inhibition of bacterial growth, overnight 25° C., Table 1

Substance	Minimal inhibition concentration (MIC) [1] [µg/mL]	Minimal inhibition concentration (MIC) [2] [µg/mL]	Minimal inhibition concentration (MIC) [3] [µg/mL]	Minimal inhibition concentration (MIC) [12, 27] [µg/mL]	Minimal inhibition concentration (MIC) [13, 27] [µg/mL]	Minimal inhibition concentration (MIC) [14, 27] [µg/mL]	Minimal inhibition concentration (MIC) [15, 27] [µg/mL]	Minimal inhibition concentration (MIC) [16, 27] [µg/mL]	Minimal inhibition concentration (MIC) [17] [µg/mL]	LC (lethal concentration) [18]	MIC [18]	LC (lethal concentration) [19] [µg/mL]	MIC [19] [µg/mL]	LC (lethal concentration) [20]	MIC [20]	LC (lethal concentration) [21]	MIC [21]	LC (lethal concentration) [22]	MIC [22]	LC (lethal concentration) [23] [µg/mL]	further results
KRRLAAFRAFRGALKSVLKK-NH2 [SP16]	>100	>100	20	>40	5	5	5	2.5													Activity against human pathogens (MIC) [4]: >50 µg/mL; Activity against human pathogens (MIC) [5]: >50 µg/mL; Activity against human pathogens (MIC) [6]: >50 µg/mL; Activity against human pathogens (MIC) [7]: >50 µg/mL; Activity against human pathogens (MIC) [8]: 20 µg/mL; Activity against human pathogens (MIC) [9]: >50 µg/mL; Activity against human pathogens (MIC) [10]: 10 µg/mL; Activity against human pathogens (MIC) [11]: >50 µg/mL
KRRLIARILRLAARALVKKR (also: D-amino acids at unstated positions) [SP13-D]	20	>40	5	>40	2	1	2.5	40	10												
KRRLIARILRLAARALVKKR-NH2 [SP13]	>100	>100	20						2.5	1.0 µg/mL	0.25 µg/mL	1.0	0.25	10/>10 μg/ml	10/>10 μg/ml	0.5/0.5 μg/ml	0.5/0.5 μg/ml	5.0/5.0 μg/ml	5.0/5.0 μg/ml	0.5	MIC [23]: 0.1 µg/mL; Minimal inhibition concentration (MIC) [12]: >40 µg/mL; Minimal inhibition concentration (MIC) [13]: 2.5 µg/mL; Minimal inhibition concentration (MIC) [14]: 20 µg/mL; Minimal inhibition concentration (MIC) [15]: 10 µg/mL; Minimal inhibition concentration (MIC) [16]: 2.5 µg/mL
KRRLILRILRLAIRILVKKR-NH2 [SP13-3]										>10/>10 μg/ml	>10/>10 μg/ml	10	2.5	>10/>10 μg/ml	>10/>10 μg/ml	>10/>10 μg/ml	>10/>10 μg/ml	10/10 μg/ml	10/10 μg/ml	10	MIC [23]: 2.5 µg/mL; IC50 [24]: 2100 nM; negative/toxic effect on test cells (HeLa cells) [25]: No negative/toxic effect
Magainin-2																					activity against Xylella fastidiosa [26]: active
